Source: paper PMC9090415, “Discovery of small molecule inhibitors of Plasmodium falciparum apicoplast DNA polymerase” (Journal of Enzyme Inhibition and Medicinal Chemistry, 2022)

Target: P. falciparum apicoplast DNA polymerase (Pf-apPOL) (Plasmodium falciparum, UniProt Q8ILY1)
Assay: Fluorescence-based high-throughput DNA polymerase assay (molecular beacon), primary screen and dose-response;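 on % inhibition ApPOL 90': test concentration in µM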;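 on % inhibition apPOL 180': test concentration in µM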
Assay type: biochemical
Settings: for DNA Pol: 90 min, 10 µM
In short: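 Single-point screening used 10 µM compound with 20 nM polymerase, 20 nM hairpin substrate and 6 µM dNTPs for 90 min at 25 °C. Confirmatory titrations (2.5–80 µM) followed fluorescence at three times, and IC50 was derived from a fit including a cooperativity term n.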

[1] = primary screen value of the 186 hits, unit not given

Sequence of P. falciparum apicoplast DNA polymerase (Pf-apPOL) (Q8ILY1 entry or part of it): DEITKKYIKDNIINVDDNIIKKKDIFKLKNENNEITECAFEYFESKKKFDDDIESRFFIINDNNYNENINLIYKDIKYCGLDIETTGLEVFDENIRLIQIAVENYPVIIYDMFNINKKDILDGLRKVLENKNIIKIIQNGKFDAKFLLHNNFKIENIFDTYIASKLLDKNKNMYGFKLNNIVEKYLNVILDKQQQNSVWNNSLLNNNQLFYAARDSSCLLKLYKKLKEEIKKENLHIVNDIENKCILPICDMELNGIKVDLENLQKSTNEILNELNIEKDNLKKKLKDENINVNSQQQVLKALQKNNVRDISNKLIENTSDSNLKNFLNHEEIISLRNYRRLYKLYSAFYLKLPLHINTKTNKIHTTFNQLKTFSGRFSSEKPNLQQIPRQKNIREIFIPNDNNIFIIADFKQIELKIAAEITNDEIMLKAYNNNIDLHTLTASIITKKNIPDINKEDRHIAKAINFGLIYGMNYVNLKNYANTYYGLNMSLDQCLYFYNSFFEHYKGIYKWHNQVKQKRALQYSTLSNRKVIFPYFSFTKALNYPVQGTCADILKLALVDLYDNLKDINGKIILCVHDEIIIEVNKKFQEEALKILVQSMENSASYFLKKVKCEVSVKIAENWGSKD

## O=C(CSc1nc2ccccc2s1)Nc1ncc([N+](=O)[O-])s1 [KU0019667]
DRC-1, concentration 2.5
  % inhibition Apo pol 10': 10.9138%
DRC-1, concentration 5
  % inhibition Apo pol 10': 29.1635%
DRC-1, concentration 10
  % inhibition Apo pol 10': 61.6987%
DRC-1, concentration 20
  % inhibition Apo pol 10': 83.6526%
DRC-1, concentration 40
  % inhibition Apo pol 10': 89.1806%
DRC-1, concentration 80
  % inhibition Apo pol 10': 87.7336%
DRC-1, 90', concentration 2.5
  % inhibition Apol 90': 0.4185%
DRC-1, 90', concentration 5
  % inhibition Apol 90': 12.4734%
DRC-1, 90', concentration 10
  % inhibition Apol 90': 42.9699%
DRC-1, 90', concentration 20
  % inhibition Apol 90': 72.9689%
DRC-1, 90', concentration 40
  % inhibition Apol 90': 86.0812%
DRC-1, 90', concentration 80
  % inhibition Apol 90': 87.9131%
DRC-1, 180', concentration 2.5
  % inhibition apPOL 180': -6.305%
DRC-1, 180', concentration 5
  % inhibition apPOL 180': -0.1201%
DRC-1, 180', concentration 10
  % inhibition apPOL 180': 24.654%
DRC-1, 180', concentration 20
  % inhibition apPOL 180': 57.312%
DRC-1, 180', concentration 40
  % inhibition apPOL 180': 80.0815%
DRC-1, 180', concentration 80
  % inhibition apPOL 180': 84.5661%
DRC-2, 5', concentration 2.5
  % inhibition Apo pol 5': 0.175%
DRC-2, 5', concentration 5
  % inhibition Apo pol 5': -22%
DRC-2, 5', concentration 10
  % inhibition Apo pol 5': -38%
DRC-2, 5', concentration 20
  % inhibition Apo pol 5': -73%
DRC-2, 5', concentration 40
  % inhibition Apo pol 5': -86%
DRC-2, 5', concentration 80
  % inhibition Apo pol 5': -130%
DRC-2, 40', concentration 2.5
  % inhibition Apol 40': -1.35%
DRC-2, 40', concentration 5
  % inhibition Apol 40': -10%
DRC-2, 40', concentration 10
  % inhibition Apol 40': -13%
DRC-2, 40', concentration 20
  % inhibition Apol 40': -32%
DRC-2, 40', concentration 40
  % inhibition Apol 40': -29%
DRC-2, 40', concentration 80
  % inhibition Apol 40': -70%
DRC-2, 90', concentration 2.5
  % inhibition ApPOL 90': -3%
DRC-2, 90', concentration 5
  % inhibition ApPOL 90': -10%
DRC-2, 90', concentration 10
  % inhibition ApPOL 90': -10%
DRC-2, 90', concentration 20
  % inhibition ApPOL 90': -23%
DRC-2, 90', concentration 40
  % inhibition ApPOL 90': -14%
DRC-2, 90', concentration 80
  % inhibition ApPOL 90': -45%
DRC-2, 180', concentration 2.5
  % inhibition apPOL 180': -13%
DRC-2, 180', concentration 5
  % inhibition apPOL 180': -17%
DRC-2, 180', concentration 10
  % inhibition apPOL 180': -18%
DRC-2, 180', concentration 20
  % inhibition apPOL 180': -23%
DRC-2, 180', concentration 40
  % inhibition apPOL 180': -7%
DRC-2, 180', concentration 80
  % inhibition apPOL 180': -23%
conc. 2.5, 180', DRC-2
  % inhibition apPOL 180': -13%
conc. 5, 40', DRC-2
  % inhibition Apol 40': -10%
conc. 5, 90', DRC-2
  % inhibition ApPOL 90': -10%
conc. 10, 40', DRC-2
  % inhibition Apol 40': -13%
conc. 10, 90', DRC-2
  % inhibition ApPOL 90': -10%
conc. 20, 90', DRC-2
  % inhibition ApPOL 90': -23%
conc. 20, 180', DRC-2
  % inhibition apPOL 180': -23%
conc. 80, 180', DRC-2
  % inhibition apPOL 180': -23%
Primary screen value by plate and well
  DNA Pol: 67
[1]
  DNA Pol: 67

## O=C(O)c1ccc(-c2nc3cc(-c4ccc5nc(-c6ccc(C(=O)O)cc6)[nH]c5c4)ccc3[nH]2)cc1 [Molecule 1, OC(=O)c1ccc(cc1)c1nc2c([nH]1)cc(cc2)c1ccc2c(c1)nc([nH]2)c1ccc(cc1)C(=O)O]
DRC-1, concentration 2.5
  % inhibition Apo pol 10': 4.605%
DRC-1, concentration 5
  % inhibition Apo pol 10': 47.5072%
DRC-1, concentration 10
  % inhibition Apo pol 10': 71.1755%
DRC-1, concentration 20
  % inhibition Apo pol 10': 72.8856%
DRC-1, concentration 40
  % inhibition Apo pol 10': 63.5867%
DRC-1, concentration 80
  % inhibition Apo pol 10': 67.7005%
DRC-1, 90', concentration 2.5
  % inhibition Apol 90': 3.724%
DRC-1, 90', concentration 5
  % inhibition Apol 90': 40.2973%
DRC-1, 90', concentration 10
  % inhibition Apol 90': 67.3465%
DRC-1, 90', concentration 20
  % inhibition Apol 90': 73.5196%
DRC-1, 90', concentration 40
  % inhibition Apol 90': 66.9827%
DRC-1, 90', concentration 80
  % inhibition Apol 90': 77.5146%
DRC-1, 180', concentration 2.5
  % inhibition apPOL 180': 2.544%
DRC-1, 180', concentration 5
  % inhibition apPOL 180': 30.2265%
DRC-1, 180', concentration 10
  % inhibition apPOL 180': 61.3297%
DRC-1, 180', concentration 20
  % inhibition apPOL 180': 73.7422%
DRC-1, 180', concentration 40
  % inhibition apPOL 180': 70.4852%
DRC-1, 180', concentration 80
  % inhibition apPOL 180': 81.7521%
DRC-2, 5', concentration 2.5 (unit not given)
  % inhibition Apo pol 5': 30%
DRC-2, 5', concentration 20 (unit not given)
  % inhibition Apo pol 5': 37%
DRC-2, 5', concentration 40 (unit not given)
  % inhibition Apo pol 5': 37%
DRC-2, 40', concentration 2.5 (unit not given)
  % inhibition Apol 40': 30%
DRC-2, 40', concentration 10 (unit not given)
  % inhibition Apol 40': 32%
DRC-2, 40', concentration 20 (unit not given)
  % inhibition Apol 40': 41%
DRC-2, 40', concentration 80 (unit not given)
  % inhibition Apol 40': 32%
DRC-2, 90', concentration 80 (unit not given)
  % inhibition ApPOL 90': 41%
DRC-2, 180', concentration 20 (unit not given)
  % inhibition apPOL 180': 37%
DRC-2, 5', concentration 2.5
  % inhibition Apo pol 5': 30%
DRC-2, 5', concentration 5
  % inhibition Apo pol 5': 7%
DRC-2, 5', concentration 10
  % inhibition Apo pol 5': 33%
DRC-2, 5', concentration 20
  % inhibition Apo pol 5': 37%
DRC-2, 5', concentration 40
  % inhibition Apo pol 5': 37%
DRC-2, 5', concentration 80
  % inhibition Apo pol 5': 22%
DRC-2, 40', concentration 2.5
  % inhibition Apol 40': 30%
DRC-2, 40', concentration 5
  % inhibition Apol 40': 4%
DRC-2, 40', concentration 10
  % inhibition Apol 40': 32%
DRC-2, 40', concentration 20
  % inhibition Apol 40': 41%
DRC-2, 40', concentration 40
  % inhibition Apol 40': 48%
DRC-2, 40', concentration 80
  % inhibition Apol 40': 32%
DRC-2, 90', concentration 2.5
  % inhibition ApPOL 90': 25%
DRC-2, 90', concentration 5
  % inhibition ApPOL 90': 1.89%
DRC-2, 90', concentration 10
  % inhibition ApPOL 90': 28%
DRC-2, 90', concentration 20
  % inhibition ApPOL 90': 40%
DRC-2, 90', concentration 40
  % inhibition ApPOL 90': 53%
DRC-2, 90', concentration 80
  % inhibition ApPOL 90': 41%
DRC-2, 180', concentration 2.5
  % inhibition apPOL 180': 14%
DRC-2, 180', concentration 5
  % inhibition apPOL 180': -1.88%
DRC-2, 180', concentration 10
  % inhibition apPOL 180': 20%
DRC-2, 180', concentration 20
  % inhibition apPOL 180': 37%
DRC-2, 180', concentration 40
  % inhibition apPOL 180': 56%
DRC-2, 180', concentration 80
  % inhibition apPOL 180': 49%
[1]
  DNA Pol: 68
Primary screen value, head "DNA Pol", unit not given
  DNA Pol: 68

## O=C(Nc1nnc(-c2ccno2)o1)c1ccc2ncsc2c1 [Molecule 62]
Supplemental file 2, sheet IC50 nontoxic compounds, Pf-apPOL
  IC50: 14.2 µM

## CC(C)(C)c1cc(C(=O)C(C#N)=NNc2cccc(Cl)c2)no1 [Molecule 98, N#CC(=NNc1cccc(c1)Cl)C(=O)c1noc(c1)C(C)(C)C]
'DNA Pol' of the 186 hits list (primary screen result), unit not given
  DNA Pol: 96
DRC-1, concentration 2.5
  % inhibition Apo pol 10': 10.7073%
DRC-1, concentration 5
  % inhibition Apo pol 10': 31.7551%
DRC-1, concentration 10
  % inhibition Apo pol 10': 51.803%
DRC-1, concentration 20
  % inhibition Apo pol 10': 87.204%
DRC-1, concentration 40
  % inhibition Apo pol 10': 82.704%
DRC-1, concentration 80
  % inhibition Apo pol 10': 96.4114%
DRC-1, 90', concentration 2.5
  % inhibition Apol 90': 12.918%
DRC-1, 90', concentration 5
  % inhibition Apol 90': 31.5705%
DRC-1, 90', concentration 10
  % inhibition Apol 90': 54.1185%
DRC-1, 90', concentration 20
  % inhibition Apol 90': 87.0322%
DRC-1, 90', concentration 40
  % inhibition Apol 90': 80.829%
DRC-1, 90', concentration 80
  % inhibition Apol 90': 96.7924%
DRC-1, 180', concentration 2.5
  % inhibition apPOL 180': 9.726%
DRC-1, 180', concentration 5
  % inhibition apPOL 180': 23.8574%
DRC-1, 180', concentration 10
  % inhibition apPOL 180': 46.8466%
DRC-1, 180', concentration 20
  % inhibition apPOL 180': 85.1856%
DRC-1, 180', concentration 40
  % inhibition apPOL 180': 79.4059%
DRC-1, 180', concentration 80
  % inhibition apPOL 180': 96.5379%
DRC-2, 90', concentration 20 (unit not given)
  % inhibition ApPOL 90': 61%
DRC-2, 5', concentration 2.5
  % inhibition Apo pol 5': 8%
DRC-2, 5', concentration 5
  % inhibition Apo pol 5': 18%
DRC-2, 5', concentration 10
  % inhibition Apo pol 5': 30%
DRC-2, 5', concentration 20
  % inhibition Apo pol 5': 47%
DRC-2, 5', concentration 40
  % inhibition Apo pol 5': 46%
DRC-2, 5', concentration 80
  % inhibition Apo pol 5': 61%
DRC-2, 5', concentration 80 (unit not given)
  % inhibition Apo pol 5': 61%
DRC-2, 40', concentration 2.5
  % inhibition Apol 40': 10%
DRC-2, 40', concentration 5
  % inhibition Apol 40': 24%
DRC-2, 40', concentration 10
  % inhibition Apol 40': 40%
DRC-2, 40', concentration 20
  % inhibition Apol 40': 60%
DRC-2, 40', concentration 40
  % inhibition Apol 40': 56%
DRC-2, 40', concentration 80
  % inhibition Apol 40': 76%
DRC-2, 90', concentration 2.5
  % inhibition ApPOL 90': 8.47%
DRC-2, 90', concentration 5
  % inhibition ApPOL 90': 21%
DRC-2, 90', concentration 10
  % inhibition ApPOL 90': 39%
DRC-2, 90', concentration 20
  % inhibition ApPOL 90': 61%
DRC-2, 90', concentration 40
  % inhibition ApPOL 90': 58%
DRC-2, 90', concentration 80
  % inhibition ApPOL 90': 79%
DRC-2, 180', concentration 2.5
  % inhibition apPOL 180': 2.49%
DRC-2, 180', concentration 5
  % inhibition apPOL 180': 14%
DRC-2, 180', concentration 10
  % inhibition apPOL 180': 31%
DRC-2, 180', concentration 20
  % inhibition apPOL 180': 57%
DRC-2, 180', concentration 40
  % inhibition apPOL 180': 55%
DRC-2, 180', concentration 80
  % inhibition apPOL 180': 81%
Primary screen value of the library well, unit not given
  DNA Pol: 96
